The source of these data is patent US20080221100A1, “SOLUBLE EPOXIDE HYDROLASE INHIBITORS” (Arete Therapeutics, Inc., priority 2006, published 2008).

In data set [1] the test system is soluble epoxide hydrolase (sEH). In words: Fluorescent assay for mouse and human soluble epoxide hydrolase (CMNPC substrate). Format: biochemical, mouse or human, not specified. The source says:
Fluorescent Assay for Mouse and Human Soluble Epoxide Hydrolase Recombinant mouse sEH (MsEH) and human sEH (HsEH) were produced in a baculovirus expression system as previously reported. Grant et al., J. Biol. Chem., 268:17628-17633 (1993); Beetham et al., Arch. Biochem. Biophys., 305:197-201 (1993). The expressed proteins were purified from cell lysate by affinity chromatography. Wixtrom et al., Anal. Biochem., 169:71-80 (1988). Protein concentration was quantified using the Pierce BCA assay using bovine serum albumin as the calibrating standard. […] They contained no detectable esterase or glutathione transferase activity which can interfere with the assay. The assay was also evaluated with similar results in crude cell lysates or homogenate of tissues. The IC50s for each inhibitor were determined according to the following procedure: Substrate: [drawing 155] […] Jones P. D. et al.; Analytical Biochemistry 2005; 343: pp. 66-75) Solutions: Bis/Tris HCl 25 mM pH 7.0 containing 0.1 mg/mL of BSA (buffer […] at 0.25 mM in DMSO. Mother solution of enzyme in buffer A (Mouse sEH at 6 μg/mL and Human sEH at 5 μg/mL). Inhibitor dissolved in DMSO at the appropriate concentration. Protocol: In a black 96 well plate, fill all the wells with 150 μL of buffer A. Add 2 μL of DMSO in well A2 and A3, and then add 2 μL of inhibitor solution in A1 and A4 through A12. Add 150 μL of buffer A in row A, then mix several time and transfer 150 μL to row B. Repeat this operation up to row H. The 150 μL removed from row H is discarded. Add 20 μL of buffer A in column 1 and 2, then add 20 μL of enzyme solution to column 3 to 12. Incubate the plate for 5 minutes in the plate reader at 30° C. During incubation prepare the working solution of substrate by mixing 3.68 mL of buffer A (4×0.920 mL) with 266 μL (2×133 μL) of substrate solution). At t=0, add 30 μL of working substrate solution with multi-channel pipette labeled “Briggs 303” and start the reading ([S]final: 5 μM). Read with ex: 330 nm (20 nm) and em: 465 nm (20 nm) every 30 second for 10 minutes. The velocities are used to analyze and calculate the IC50s.

Turning to `Cc1nc(C(=O)N2CCC(NC(=O)Nc3ccc(C(F)(F)F)cc3)CC2)c(C)o1` [Compound 39, 1-(1-(2,5-Dimethyloxazole-4-carbonyl)piperidin-4-yl)-3-(4-(trifluoromethyl)phenyl)urea], the melting point was in the range of 217 to 219 °C. For the same compound, in data set [1] (Conc 50 nM), the “% Inhibition” value is listed as 92%.
For `CC(C)(C)C(=O)N1CCC(NC(=O)Nc2ccc(C(F)(F)F)cc2)CC1` [Compound 41, 1-(1-Pivaloylpiperidin-4-yl)-3-(4-(trifluoromethyl)phenyl)urea], in that order: 263 to 265 °C and 97%.
For the compound `O=C(Nc1ccc(C(F)(F)F)cc1)NC1CCN(C(=O)CCCO)CC1` [Compound 53, 1-(1-(4-hydroxybutanoyl)piperidin-4-yl)-3-(4-(trifluoromethyl)phenyl)urea], the melting point was in the range of 175 to 182 °C. For the same compound, the “% Inhibition” value in data set [1] (Conc 200 nM) came to 100%.
On the same counts, the results for `CC(C)(O)CCC(=O)N1CCC(NC(=O)Nc2ccc(C(F)(F)F)cc2)CC1` [Compound 47, 1-(1-(4-hydroxy-4-methylpentanoyl)piperidin-4-yl)-3-(4-(trifluoromethyl)phenyl)urea] are 184 to 186 °C and 93%.
In the case of `O=C(Nc1cccc(F)c1)NC1CCN(S(=O)(=O)c2ccc(Cl)cc2)CC1` [Compound 23, 1-[1-(4-Chloro-benzenesulfonyl)-piperidin-4-yl]-3-(3-fluoro-phenyl)-urea], the melting point is 245 to 248 °C. Further, the “% Inhibition” value in data set [1] (Conc 50 nM) is recorded as 91%.
`COCC(=O)N1CCC(NC(=O)Nc2ccc(C(F)(F)F)cc2)CC1` [Compound 51, 1-(1-(2-methoxyacetyl)piperidin-4-yl)-3-(4-(trifluoromethyl)phenyl)urea] had a melting point of 214 to 215 °C. For the same compound, in data set [1] (Conc 2000 nM), the “% Inhibition” value came to 100%.
In turn, `O=C(Nc1ccc(Cl)cc1)NC1CCN(C(=O)c2ccc(N3CCOCC3)cc2)CC1` [Compound 36, 1-(4-Chlorophenyl)-3-(1-(4-morpholinobenzoyl)piperidin-4-yl)urea] came in with a melting point of 303 to 308 °C. For the same compound, the “% Inhibition” value in data set [1] (Conc 50 nM) was determined as 95%.
`CC(=O)N1CCC(NC(=O)Nc2ccc(F)cc2)CC1` [Compound 21, 1-(1-Acetyl-piperidin-4-yl)-3-(4-fluoro-phenyl)-urea] registered a melting point of 146 to 148 °C. For the same compound, in data set [1] (Conc 500 nM), the “% Inhibition” value amounted to 74%.
As to `O=C(Nc1ccc(C(F)(F)F)cc1)NC1CCN(C(=O)CCO)CC1` [Compound 49, 1-(1-(3-hydroxypropanoyl)piperidin-4-yl)-3-(4-(trifluoromethyl)phenyl)urea], the melting point was 158 to 160 °C. The “% Inhibition” value in data set [1] (Conc 200 nM) is reported as 90%.
The compound `CS(=O)(=O)N1CCC(NC(=O)Nc2cccc(F)c2)CC1` [Compound 31, 1-(3-Fluoro-phenyl)-3-(1-methanesulfonyl-piperidin-4-yl)-urea] returned a melting point of 212 to 214 °C. The “% Inhibition” value in data set [1] (Conc 500 nM) is listed as 80%.
The compound `CC(C)(C)[S+]([O-])N1CCC(NC(=O)Nc2ccc(C(F)(F)F)cc2)CC1` (stereo not shown) [Compound 52, 1-(1-(tert-butylsulfinyl)piperidin-4-yl)-3-(4-(trifluoromethyl)phenyl)urea] displayed a melting point of 229 to 230 °C. The “% Inhibition” value in data set [1] (Conc 200 nM) is recorded as 94%.
In turn, `O=C(Nc1cccc(F)c1)NC1CCN(S(=O)(=O)c2cccc(C(F)(F)F)c2)CC1` [Compound 28, 1-(3-Fluoro-phenyl)-3-[1-(3-trifluoromethyl-benzenesulfonyl)-piperidin-4-yl]-urea] returned a melting point of 86 to 88 °C. Moreover, the “% Inhibition” value in data set [1] (Conc 50 nM) worked out at 94%.
For `CS(=O)(=O)N1CCC(NC(=O)Nc2ccc(F)cc2)CC1` [Compound 27, 1-(4-Fluoro-phenyl)-3-(1-methanesulfonyl-piperidin-4-yl)-urea], in that order: 186 to 188 °C and 80%.
Take `O=C(Nc1ccc(C(F)(F)F)cc1)NC1CCN(C(=O)N2CCOCC2)CC1` [Compound 55, 1-(1-(morpholine-4-carbonyl)piperidin-4-yl)-3-(4-(trifluoromethyl)phenyl)urea]: the melting point lay in the range of 234 to 236 °C. Moreover, in data set [1] (Conc 2000 nM), the “% Inhibition” value is reported as 43%.
The compound `CC(=O)N1CCC(NC(=O)Nc2cccc(F)c2)CC1` [Compound 32, 1-(1-Acetyl-piperidin-4-yl)-3-(3-fluoro-phenyl)-urea] returned a melting point of 112 to 114 °C. Further, the “% Inhibition” value in data set [1] (Conc 500 nM) stood at 80%.
In turn, `O=C(Nc1ccc(C(F)(F)F)cc1)NC1CCN(S(=O)(=O)CCCO)CC1` [Compound 50, 1-(1-(3-hydroxypropylsulfonyl)piperidin-4-yl)-3-(4-(trifluoromethyl)phenyl)urea] displayed a melting point of 200 to 205 °C. For the same compound, the “% Inhibition” value in data set [1] (Conc 200 nM) came to 98%.
Turning to `O=C(Nc1ccc(F)cc1)NC1CCN(S(=O)(=O)c2ccc(Cl)cc2)CC1` [Compound 19, 1-[1-(4-Chloro-benzenesulfonyl)-piperidin-4-yl]-3-(4-fluoro-phenyl)-urea], the melting point is 160 to 162 °C. Also, the “% Inhibition” value in data set [1] (Conc 500 nM) worked out at 85%.
As for `O=C(Nc1ccc(C(F)(F)F)cc1)NC1CCN(C(=O)c2ccc(N3CCOCC3)cc2)CC1` [Compound 37, 1-(1-(4-Morpholinobenzoyl)piperidin-4-yl)-3-(4-(trifluoromethyl)phenyl)urea], the melting point was 312 to 315 °C. For the same compound, the “% Inhibition” value in data set [1] (Conc 50 nM) stood at 98%.
For `CC(C)(C)OC(=O)C(C)(C)Oc1ccc(C(=O)N2CCC(NC(=O)Nc3ccc(C(F)(F)F)cc3)CC2)cc1` [Compound 38, Tert-butyl 2-methyl-2-(4-(4-(3-(4-(trifluoromethyl)phenyl)ureido)piperidine-1-carbonyl)phenoxy)propanoate], in that order: 206 to 208 °C and 89%.
For `O=C(Nc1cccc(F)c1)NC1CCN(S(=O)(=O)c2ccccc2)CC1` [Compound 22, 1-(1-Benzenesulfonyl-piperidin-4-yl)-3-(3-fluoro-phenyl)-urea], in that order: 186 to 188 °C and 82%.
